Where “and” joins values, the source holds several entries; their conditions need not be identical. Identical values can stand only once. Like-named read-outs stand apart in the source and are kept apart here.
Experiments:
[1] = system: erythroid progenitor cells (EPCs); assay: Fetal hemoglobin (HbF) ELISA in day 7 erythroid progenitor cells; format: cell-based, human; conditions: Homo sapiens, Erythroid progenitor cell, HbF ELISA, day 7 EPCs, 5 days; read-out: EPC ELISA (pEC50 category) (converted);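 note: for fetal hemoglobin induction normalized to vehicle-treated cells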
Outline: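 CD34+-derived EPCs, 1,000 cells/well, rhEPO 3 U/mL; Compound A 22-pt series, […]; 5 d, 37° C, 5% CO2. Freeze-thaw lysis, anti-HbF capture + HRP anti-HbF, TMB, OD450. Normalized to DMSO wells.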

DNMT1 = DNMT1 (Homo sapiens, UniProt P26358); assay: DNMT1 biochemical activity, breaklight assay and/or SPA assay
[2] = binned activity in either the breaklight or the SPA assay, read-out: DNMT1 BioChemical (pIC50 category) (converted)
[3] = breaklight assay and/or SPA assay, repeated experimental runs, read-out: average pIC50 against DNMT1 (converted)
[4] = binned activity in either the breaklight or the SPA assay

Chain of DNMT1 (P26358 whole entry, looked up): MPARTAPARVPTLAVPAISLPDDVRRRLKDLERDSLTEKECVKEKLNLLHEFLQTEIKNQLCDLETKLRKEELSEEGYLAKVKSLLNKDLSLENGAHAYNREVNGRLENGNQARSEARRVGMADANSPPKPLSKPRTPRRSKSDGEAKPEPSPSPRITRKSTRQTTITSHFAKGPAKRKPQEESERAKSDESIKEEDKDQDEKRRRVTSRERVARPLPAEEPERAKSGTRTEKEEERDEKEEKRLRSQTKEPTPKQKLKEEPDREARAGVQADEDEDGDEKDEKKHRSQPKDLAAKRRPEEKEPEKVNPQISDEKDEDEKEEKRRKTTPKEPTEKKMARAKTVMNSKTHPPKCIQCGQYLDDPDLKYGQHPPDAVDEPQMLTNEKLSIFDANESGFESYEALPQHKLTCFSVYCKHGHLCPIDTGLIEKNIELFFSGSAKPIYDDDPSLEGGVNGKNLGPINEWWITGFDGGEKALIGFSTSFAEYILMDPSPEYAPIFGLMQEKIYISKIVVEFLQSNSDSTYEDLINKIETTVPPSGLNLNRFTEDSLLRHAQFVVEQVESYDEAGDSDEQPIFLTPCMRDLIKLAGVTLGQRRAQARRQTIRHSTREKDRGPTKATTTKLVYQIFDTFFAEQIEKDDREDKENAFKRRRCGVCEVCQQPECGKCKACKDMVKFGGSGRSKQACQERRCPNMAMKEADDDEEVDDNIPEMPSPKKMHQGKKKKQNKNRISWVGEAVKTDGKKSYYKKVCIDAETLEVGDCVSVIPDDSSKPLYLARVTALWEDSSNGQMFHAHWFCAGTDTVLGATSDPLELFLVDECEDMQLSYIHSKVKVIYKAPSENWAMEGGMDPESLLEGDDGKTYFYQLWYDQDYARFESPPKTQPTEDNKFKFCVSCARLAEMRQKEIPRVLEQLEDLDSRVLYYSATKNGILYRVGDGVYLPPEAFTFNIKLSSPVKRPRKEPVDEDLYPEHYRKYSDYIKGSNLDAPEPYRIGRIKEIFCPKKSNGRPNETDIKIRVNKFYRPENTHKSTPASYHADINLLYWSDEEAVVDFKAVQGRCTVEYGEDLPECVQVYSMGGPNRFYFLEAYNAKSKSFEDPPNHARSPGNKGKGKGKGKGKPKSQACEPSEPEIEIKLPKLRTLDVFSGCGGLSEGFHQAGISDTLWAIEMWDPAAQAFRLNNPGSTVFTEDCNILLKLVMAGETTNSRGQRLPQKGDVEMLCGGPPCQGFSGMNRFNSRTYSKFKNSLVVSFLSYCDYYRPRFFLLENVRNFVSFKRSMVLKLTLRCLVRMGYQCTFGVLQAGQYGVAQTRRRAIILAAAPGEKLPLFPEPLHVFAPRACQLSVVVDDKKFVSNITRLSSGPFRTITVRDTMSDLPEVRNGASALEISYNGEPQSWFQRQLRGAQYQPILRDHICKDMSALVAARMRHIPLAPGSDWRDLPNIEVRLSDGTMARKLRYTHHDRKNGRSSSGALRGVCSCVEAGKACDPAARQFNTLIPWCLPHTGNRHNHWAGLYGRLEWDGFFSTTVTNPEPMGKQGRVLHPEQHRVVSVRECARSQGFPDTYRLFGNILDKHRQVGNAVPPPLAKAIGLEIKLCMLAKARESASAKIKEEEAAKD

EC50 [1] | IC50 (DNMT1; [2]) | IC50 (DNMT1; [3]) | DNMT1 BioChemical (pIC50 category) (DNMT1; [4]) | average pIC50 against DNMT1 (DNMT1; breaklight assay and/or SPA assay, repeated experimental runs) | Structure (SMILES)
1000 to 31600 nM | 1000 to 31600 nM | – | – | – | CCc1c(C#N)c(SC(C(N)=O)C2CCNCC2)nc(N(C)C)c1C#N (stereo not shown) [Example 157, 2-((3,5-dicyano-6-(dimethylamino)-4-ethylpyridin-2-yl)thio)-2-(piperidin-4-yl)acetamide]
< 316 nM | 316 to 1000 nM | – | – | – | CCCS(=O)(=O)N1CCN(c2nc(SC(C(N)=O)c3ccccc3)c(C#N)c(CC)c2C#N)CC1 (stereo not shown) [Example 158, 2-((3,5-Dicyano-4-ethyl-6-(4-(propylsulfonyl)piperazin-1-yl)pyridin-2-yl)thio)-2-phenylacetamide]
316 to 1000 nM | 1000 to 31600 nM | – | – | – | CCc1c(C#N)c(SC(C(N)=O)c2ccccc2)nc(N2CCN(S(=O)(=O)c3ccccc3)CC2)c1C#N (stereo not shown) [Example 159, 2-((3,5-Dicyano-4-ethyl-6-(4-(phenylsulfonyl)piperazin-1-yl)pyridin-2-yl)thio)-2-phenylacetamide]
1000 to 31600 nM | 1000 to 31600 nM | – | – | – | CCc1c(C#N)c(SC(C(N)=O)c2ccccc2)nc(N2CC[C@@H](O)C2)c1C#N (stereo partly drawn) [Example 160, 2-((3,5-Dicyano-4-ethyl-6-((R)-3-hydroxypyrrolidin-1-yl)pyridin-2-yl)thio)-2-phenylacetamide]
1000 to 31600 nM | 316 to 1000 nM | – | – | – | CCc1c(C#N)c(SC(C(N)=O)c2ccccc2)nc(N2CCC3(COC3)C2)c1C#N (stereo not shown) [Example 161, 2-((3,5-Dicyano-4-ethyl-6-(2-oxa-6-azaspiro[3.4]octan-6-yl)pyridin-2-yl)thio)-2-phenylacetamide]
1000 to 31600 nM | 1000 to 31600 nM | – | – | – | CCc1c(C#N)c(N[C@@H](C(N)=O)c2ccccc2)nc(N2CCCN(CC)CC2)c1C#N [Example 162, (R)-2-((3,5-Dicyano-4-ethyl-6-(4-ethyl-1,4-diazepan-1-yl)pyridin-2-yl)amino)-2-phenylacetamide]
> 31600 nM | 1000 to 31600 nM | – | – | – | CCc1c(C#N)c(N[C@@H](C(N)=O)c2ccccc2)nc(N2CCCN(CCCN3CCCC3)CC2)c1C#N [Example 163, (R)-2-((3,5-Dicyano-4-ethyl-6-(4-(3-(pyrrolidin-1-yl)propyl)-1,4-diazepan-1-yl)pyridin-2-yl)amino)-2-phenylacetamide]
> 31600 nM | 316 to 1000 nM | 316 to 1000 nM and 631 nM | – | – | CCc1c(Cl)c(SC(C(N)=O)c2ccccc2)nc(N2CCCN(C)CC2)c1Cl (stereo not shown) [Example 165]
< 316 nM | 316 to 1000 nM | – | – | – | CCc1c(C#N)c(SC(C(N)=O)c2ccccc2)nc(N2CCS(=O)(=O)CC2)c1C#N (stereo not shown) [Example 166, 2-((3,5-Dicyano-6-(1,1-dioxidothiomorpholino)-4-ethylpyridin-2-yl)thio)-2-phenylacetamide]
< 316 nM | – | – | D (Category D: ≥6.5) | – | CCc1c(C#N)c(SC(C(N)=O)c2ccccc2)nc(N(C)CCN2CCNCC2)c1C#N (stereo not shown) [Example 167, 2-((3,5-Dicyano-4-ethyl-6-(methyl(2-(piperazin-1-yl)ethyl)amino)pyridin-2-yl)thio)-2-phenylacetamide]
316 to 1000 nM | – | 200 nM | D (Category D: ≥6.5) | > 6.5 | CCc1c(C#N)c(S[C@@H](C(N)=O)c2ccccc2)nc(N2CC[C@H](O)C2)c1C#N [Example 168, (R)-2-((3,5-Dicyano-4-ethyl-6-((S)-3-hydroxypyrrolidin-1-yl)pyridin-2-yl)thio)-2-phenylacetamide]
1000 to 31600 nM | – | – | D (Category D: ≥6.5) | – | CCc1c(C#N)c(SC(C(N)=O)c2ccccc2)nc(N(C)CCN2CCC(O)(CN)CC2)c1C#N (stereo not shown) [Example 170, 2-((6-((2-(4-(Aminomethyl)-4-hydroxypiperidin-1-yl)ethyl)(methyl)amino)-3,5-dicyano-4-ethylpyridin-2-yl)thio)-2-phenylacetamide]
> 31600 nM | 316 to 1000 nM | – | – | – | N#Cc1c(N2CCCNCC2)nc(SC(C(N)=O)c2ccccc2)c2c1CCC2 (stereo not shown) [Example 171, 2-((4-Cyano-3-(1,4-diazepan-1-yl)-6,7-dihydro-5H-cyclopenta[c]pyridin-1-yl)thio)-2-phenylacetamide]
< 316 nM | 1000 to 31600 nM | – | – | – | CCc1c(C#N)c(SC(C(N)=O)c2ccccc2)nc(N2CCC(n3ccnc3)CC2)c1C#N (stereo not shown) [Example 172, 2-((6-(4-(1H-Imidazol-1-yl)piperidin-1-yl)-3,5-dicyano-4-ethylpyridin-2-yl)thio)-2-phenylacetamide]
316 to 1000 nM | 316 to 1000 nM | – | – | – | CCc1c(C#N)c(SC(C(N)=O)c2ccccc2)nc(N2CCN(Cc3ccncc3)CC2)c1C#N (stereo not shown) [Example 173, 2-((3,5-Dicyano-4-ethyl-6-(4-(pyridin-4-ylmethyl)piperazin-1-yl)pyridin-2-yl)thio)-2-phenylacetamide]
316 to 1000 nM | 316 to 1000 nM | – | – | – | CCc1c(C#N)c(OCCN(C)C)nc(SC(C(N)=O)c2ccccc2)c1C#N (stereo not shown) [Example 174, 2-((3,5-Dicyano-6-(2-(dimethylamino)ethoxy)-4-ethylpyridin-2-yl)thio)-2-phenylacetamide]

EC50 [1] | IC50 (DNMT1; [2]) | IC50 (DNMT1; [3]) | DNMT1 BioChemical (pIC50 category) (DNMT1; [4]) | average pIC50 against DNMT1 (DNMT1; breaklight assay and/or SPA assay, repeated experimental runs) | Structure (SMILES)
> 31600 nM | 316 to 1000 nM | – | – | – | N#Cc1c(SC(C(N)=O)c2ccccc2)nc(N2CCCC(NCC(=O)O)C2)c(C#N)c1C1CC1 (stereo not shown) [Example 175, 2-((1-(6-((2-Amino-2-oxo-1-phenylethyl)thio)-3,5-dicyano-4-cyclopropvlpyridin-2-yl)piperidin-3-yl)amino)acetic acid]
316 to 1000 nM | 316 to 1000 nM | – | – | – | CCc1c(C#N)c(SC(C(N)=O)c2ccccc2)nc(N2CCN(Cc3ncco3)CC2)c1C#N (stereo not shown) [Example 176, 2-((3,5-Dicyano-4-ethyl-6-(4-(oxazol-2-ylmethyl)piperazin-1-yl)pyridin-2-yl)thio)-2-phenylacetamide]
1000 to 31600 nM | 316 to 1000 nM | – | – | – | CCc1c(C#N)c(SC(C(N)=O)c2ccccc2)nc(N2CCN(Cc3ccc[nH]3)CC2)c1C#N (stereo not shown) [Example 177, 2-((6-(4-((1H-Pyrrol-2-yl)methyl)piperazin-1-yl)-3,5-dicyano-4-ethylpyridin-2-yl)thio)-2-phenylacetamide]
1000 to 31600 nM | – | – | D (Category D: ≥6.5) | – | CCc1c(C#N)c(SC(C(N)=O)c2ccccc2)nc(N2CCc3ccncc3C2)c1C#N (stereo not shown) [Example 178, 2-((3,5-Dicyano-6-(3,4-dihydro-2,7-naphthyridin-2 (1H)-yl)-4-ethylpyridin-2-yl)thio)-2-phenylacetamide]
1000 to 31600 nM | 316 to 1000 nM | – | – | – | CCc1c(C#N)c(SC(C(N)=O)c2cccnc2)nc(N2CC[C@H](O)C2)c1C#N (stereo partly drawn) [Example 181, 2-((3,5-Dicyano-4-ethyl-6-((S)-3-hydroxypyrrolidin-1-yl)pyridin-2-yl)thio)-2-(pyridin-3-yl)acetamide]
316 to 1000 nM | 316 to 1000 nM | – | – | – | CCc1c(C#N)c(SC(C(N)=O)c2ccccc2)nc(N2CCN(Cc3cc[nH]c3)CC2)c1C#N (stereo not shown) [Example 182, 2-((6-(4-((1H-Pyrrol-3-yl)methyl)piperazin-1-yl)-3,5-dicyano-4-ethylpyridin-2-yl)thio)-2-phenylacetamide]
1000 to 31600 nM | 316 to 1000 nM | – | – | – | CCc1c(C#N)c(SC(C(N)=O)c2ccccc2)nc(N2CCN(Cc3ccon3)CC2)c1C#N (stereo not shown) [Example 183, 2-((3,5-Dicyano-4-ethyl-6-(4-(isoxazol-3-ylmethyl)piperazin-1-yl)pyridin-2-yl)thio)-2-phenylacetamide]
316 to 1000 nM | 316 to 1000 nM | – | – | – | CCc1c(C#N)c(SC(C(N)=O)c2ccccc2)nc(N2CCN(Cc3cnco3)CC2)c1C#N (stereo not shown) [Example 184, 2-((3,5-Dicyano-4-ethyl-6-(4-(oxazol-5-ylmethyl)piperazin-1-yl)pyridin-2-yl)thio)-2-phenylacetamide]
316 to 1000 nM | 316 to 1000 nM | – | – | – | CCc1c(C#N)c(SC(C(N)=O)c2ccccc2)nc(N2CCN(Cc3cnoc3)CC2)c1C#N (stereo not shown) [Example 185]
1000 to 31600 nM | – | – | D (Category D: ≥6.5) | – | CCc1c(C#N)c(SC(C(N)=O)c2ccccc2)nc(N2CCC(NC(=O)C3(N)COC3)CC2)c1C#N (stereo not shown) [Example 186, 3-Amino-N-(1-(6-((2-amino-2-oxo-1-phenylethyl)thio)-3,5-dicyano-4-ethylpyridin-2-yl)piperidin-4-yl)oxetane-3-carboxamide]
1000 to 31600 nM | 316 to 1000 nM | – | – | – | CCc1c(C#N)c(SC(C(N)=O)c2ccccc2)nc(N2CCN(Cc3cn[nH]c3)CC2)c1C#N (stereo not shown) [Example 187, 2-((6-(4-((1H-Pyrazol-4-yl)methyl)piperazin-1-yl)-3,5-dicyano-4-ethylpyridin-2-yl)thio)-2-phenylacetamide]
1000 to 31600 nM | 316 to 1000 nM | – | – | – | CCc1c(C#N)c(SC(C(N)=O)c2ccccc2)nc(N2CCN(Cc3cnc[nH]3)CC2)c1C#N (stereo not shown) [Example 188, 2-((6-(4-((1H-lmidazol-5-yl)methyl)piperazin-1-yl)-3,5-dicyano-4-ethylpyridin-2-yl)thio)-2-phenylacetamide]
316 to 1000 nM | 316 to 1000 nM | – | – | – | CCc1c(C#N)c(SC(C(N)=O)c2ccccc2)nc(N2CCN(C(C)(C)CO)CC2)c1C#N (stereo not shown) [Example 189]
316 to 1000 nM | – | – | D (Category D: ≥6.5) | – | COc1c(C#N)c(SC(C(N)=O)c2ccccc2)nc(N(C)C)c1C#N (stereo not shown) [Example 191, 2-((3,5-Dicyano-6-(dimethylamino)-4-methoxypyridin-2-yl)thio)-2-phenylacetamide]
1000 to 31600 nM | – | – | D (Category D: ≥6.5) | – | CCOc1c(C#N)c(SC(C(N)=O)c2ccccc2)nc(N(C)C)c1C#N (stereo not shown) [Example 192, 2-((3,5-Dicyano-6-(dimethylamino)-4-ethoxypyridin-2-yl)thio)-2-phenylacetamide]
316 to 1000 nM | – | – | D (Category D: ≥6.5) | – | CCOc1c(C#N)c(SC(C(N)=O)c2ccccc2)nc(N2CCCN(CCO)CC2)c1C#N (stereo not shown) [Example 193]

— patent US10975056B2 (GlaxoSmithKline Intellectual Property Development Limited, priority 2016, dated 2021)
